For orientation: pEC50 means the EC50 on a negative log10 scale, so that one unit is a factor of ten.

This is an account of results in ChEMBL document CHEMBL5725860 (2018).

The target of the assay is Neurotensin receptor type 1 (Homo sapiens, UniProt P30989). Nature of the assay: NTR1 Ca2+ Flux Dose Response: NTSR1 (NTR1) CHO cells are plated in 20 uL of assay media containing Ham's F12 supplemented with 10% fetal bovine serum and 0.4 mg/mL G418 at a concentration of 1.0×10^6 cells per mL into black, 384-well assay plates with clear bottoms using a Multidrop liquid handler. Assay plates are incubated at 37° C. in 5% CO2. The next day, the assay plates are aspirated to remove growth media and washed once with 20 uL of DPBS. The DPBS is then aspirated from the assay plate and replaced with 25 uL of Fluo-4 NW calcium dye prepared according to the manufacturer's recommendations then the plates are incubated for 1 hour at 37° C. Following the incubation in the presence of dye, the assay is run on a Molecular Devices FlexStation-III using 494 excitation and 516 emission wavelengths set to read for 90 seconds with the addition at 18 seconds of 5 uL of 6× final concentration of test compounds and peptide control diluted in assay media containing 0.1% BSA and no more than 9% DMSO to yield a maximum final DMSO concentration of 1.5%. […] EC50 values were calculated for those compounds tested in 8-point dose dependent response.

pEC50: −log10 of the molar value.

Neurotensin receptor type 1, sequence (P30989 whole entry): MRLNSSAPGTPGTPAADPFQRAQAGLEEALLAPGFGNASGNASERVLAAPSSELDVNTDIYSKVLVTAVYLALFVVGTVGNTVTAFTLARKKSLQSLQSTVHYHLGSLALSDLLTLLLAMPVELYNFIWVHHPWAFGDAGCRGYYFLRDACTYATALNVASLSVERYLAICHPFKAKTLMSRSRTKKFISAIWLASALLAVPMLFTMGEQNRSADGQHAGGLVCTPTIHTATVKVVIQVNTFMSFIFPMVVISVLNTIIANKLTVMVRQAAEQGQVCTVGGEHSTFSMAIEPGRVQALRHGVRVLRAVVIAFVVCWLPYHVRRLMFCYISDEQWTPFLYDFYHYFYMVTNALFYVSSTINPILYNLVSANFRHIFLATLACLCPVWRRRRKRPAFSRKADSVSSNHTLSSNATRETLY

On to `COc1ccccc1C1CCN(c2nc(C3CC3)nc3cc(F)c(N(C)CCO)cc23)CC1`, for which the negative-log EC50 (pEC50) was > 6.30.
With `COc1ccccc1C1CCN(c2nc(C3CC3)nc3c(N(C)CCO)cccc23)CC1`, the negative logarithm of the EC50 (pEC50) is < 5.00.
As for `COc1ccccc1C1CCN(c2nc(C3CC3)nc(C)c2CC(=O)N(C)CCO)CC1`, the figure is < 5.00.
As for `COc1cccc2c1CCN(c1nc(C3CC3)nc3ccc(N(C)CCO)cc13)C2`, the figure is < 5.00.
